Source: patent US20140357713A1, “ANTIMICROBIAL COMPOUNDS AND METHODS OF USE” (NexMed Holdings, Inc., priority 2012, published 2014)
Where a name gives a salt, the structure may show the parent alone. Read-outs that look alike come from different tables or passages of the source.

Experiments:
[1] = tested on: Candida albicans (ATCC 90029); experiment: Minimum inhibitory concentration (MIC) assay, Example 33; assay type: cell-based; conditions: Candida albicans
Outline: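 Broth microdilution per CLSI guidelines in RPMI 1640; inoculum set to OD530 0.08–0.13, diluted 1:50 then 1:20 to 2× strength and mixed 1:2 with 2-fold serial compound dilutions. Incubated at 35° C; MIC read per CLSI.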

[2] = tested on: Escherichia coli (ATCC 25922); experiment: as above; assay type: cell-based; conditions: Escherichia coli
Outline: (§1)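 Colonies re-streaked twice on agar (20 to 24 hrs, 35±2° C) supplied inoculum adjusted to 0.5 McFarland, diluted 1:100 into medium, then added 1:2 to CAMHB wells holding 2-fold compound dilutions. After incubation at 35° C, MIC was recorded per CLSI.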

[3] = tested on: Pseudomonas aeruginosa (ATCC 27853); experiment: as above; assay type: cell-based; conditions: Pseudomonas aeruginosa
Outline: as §1

pH (Table 1) = assay type: physicochemical
[4] = tested on: Candida albicans (ATCC 90029); experiment: Time kill study, Example 33 (0 to 5 min); assay type: cell-based; conditions: 1×MIC
Outline: (§2)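 Viable counts (Log10 CFU/mL) were recorded at each time point. Equal volumes of strain suspension and compound solution were combined following CLSI guidelines, then aliquots were diluted, plated on agar and incubated 24 to 48 hrs before colony counting.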

[5] = tested on: Staphulococcus aureus (ATCC 29213); experiment: Minimum inhibitory concentration (MIC) assay, Example 33; assay type: cell-based, Staphylococcus aureus; conditions: Staphylococcus aureus
Outline: as §1

[6] = Solubility (Sol., Table 1); assay type: physicochemical
[7] = tested on: Aspergillus niger (CMCC 98003); experiment: Minimum inhibitory concentration (MIC) assay, Example 33; assay type: cell-based; conditions: for MIC: Aspergillus niger; for MIC Aspergillus niger: n = 2
Outline: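 Broth microdilution MIC per CLSI guidelines in RPMI 1640 with serial 2-fold compound dilutions. Spore suspension from sporulating colonies adjusted to OD530 0.09-0.13, diluted 1:50 as 2× inoculum and added 1:2 to drug wells; plates incubated at 35 °C and MIC read per CLSI.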

[8] = tested on: Escherichia coli (ATCC 25922); experiment: Time kill study, Example 33 (0 to 5 min); assay type: cell-based; conditions: 1×MIC
Outline: as §2

[9] = tested on: Pseudomonas aeruginosa (ATCC 27853); experiment: Time kill study, Example 33 (0 to 5 min); assay type: cell-based; conditions: 1×MIC
Outline: as §2

[10] = tested on: Staphylococcus aureus (ATCC 29213); experiment: Time kill study, Example 33 (0 to 5 min); assay type: cell-based; conditions: 1×MIC
Outline: as §2

[11] = ATCC90029, read-out: MIC Candida albicans, n = 1
[12] = ATCC90029, read-out: MIC Candida albicans, n = 2
[13] = ATCC25922, Table 19 summary of Example 33 and Example 35
[14] = ATCC25922, read-out: MIC E. coli, n = 1
[15] = ATCC25922, read-out: MIC E. coli, n = 2
[16] = ATCC27853, read-out: MIC P. aeruginosa, n = 1
[17] = ATCC27853, read-out: MIC P. aeruginosa, n = 2
[18] = ATCC29213, read-out: MIC S. aureus, n = 1
[19] = ATCC29213, read-out: MIC S. aureus, n = 2
[20] = CMCC98003, read-out: MIC Aspergillus niger

Compound | MIC ([1]; ATCC90029, Table 19 summary) [µg/mL] | MIC [1, 11] [µg/mL] | MIC [1, 12] [µg/mL] | MIC [2, 13] [µg/mL] | MIC [2, 14] [µg/mL] | MIC [2, 15] [µg/mL] | MIC ([3]; ATCC27853, Table 19 summary) [µg/mL] | MIC [3, 16] [µg/mL] | MIC [3, 17] [µg/mL] | pH (pH (Table 1)) | MIC [5, 18] [µg/mL] | MIC [5, 19] [µg/mL] | Sol. [6] [%] | MIC ([7]; CMCC98003) [µg/mL] | MIC [7, 20] [µg/mL] | MIC Aspergillus niger [7] [µg/mL] | Viable counts, Escherichia coli time kill study ([8]; 0.5 min) [Log10 CFU/mL] | Viable counts, Escherichia coli time kill study ([8]; 1 min) [Log10 CFU/mL] | Viable counts, Escherichia coli time kill study ([8]; 5 min) [Log10 CFU/mL] | Viable counts, Escherichia coli time kill study ([8]; time 0) [Log10 CFU/mL] | further results
CCCCCCCCCCCCOC(=O)C(Cc1ccccc1)N(C)C (stereo not drawn) [Nex-54, Dodecyl 2-(dimethylamino)-3-phenylpropanoate hydrochloride] | 6250 | 6250 | 6250 | ≥ 12500 | > 12500 | 12500 | ≥ 12500 | > 12500 | 12500 | 2.16 | > 12500 | 12500 | 58 | 12500 | 12500 | 12500 | – | – | – | – | Viable counts, Candida albicans time kill study ([4]; 0.5 min): 5.56 Log10 CFU/mL; Viable counts, Candida albicans time kill study ([4]; 1 min): 5.52 Log10 CFU/mL; Viable counts, Candida albicans time kill study ([4]; 5 min): 5.48 Log10 CFU/mL; Viable counts, Candida albicans time kill study ([4]; time 0): 5.56 Log10 CFU/mL; MIC ([5]; ATCC29213, Table 19 summary): ≥ 12500 µg/mL
CCCCCCCCCCCCOC(=O)C(C)(C)N(C)C [Nex-58, Dodecyl 2-(dimethylamino)-2-methylpropanoate hydrochloride] | > 12500 | > 12500 | > 12500 | 3130 | 3130 | 3130 | 6250 | 6250 | 6250 | 2.27 | 3130 | 1560 | 51 | > 12500 | > 12500 | >12500 | <4.0 | <3.70 | <3.52 | 5.91 | Viable counts, Pseudomonas aeruginosa time kill study ([9]; 0.5 min): <4.0 Log10 CFU/mL; Viable counts, Pseudomonas aeruginosa time kill study ([9]; 1 min): <3.70 Log10 CFU/mL; Viable counts, Pseudomonas aeruginosa time kill study ([9]; 5 min): <3.52 Log10 CFU/mL; Viable counts, Pseudomonas aeruginosa time kill study ([9]; time 0): 5.54 Log10 CFU/mL; Viable counts, Staphylococcus aureus time kill study ([10]; 0.5 min): 6.15 Log10 CFU/mL; Viable counts, Staphylococcus aureus time kill study ([10]; 1 min): 6.11 Log10 CFU/mL; Viable counts, Staphylococcus aureus time kill study ([10]; 5 min): 5.81 Log10 CFU/mL; Viable counts, Staphylococcus aureus time kill study ([10]; time 0): 6.26 Log10 CFU/mL
CCCCCCCCCCCC(C)OC(=O)C(C)N(C)C (stereo not drawn) [Nex-64, Tridecan-2-yl 2-(dimethylamino)propanoate hydrochloride] | > 12500 | > 12500 | > 12500 | 3130 | 3130 | 3130 | 6250 | 6250 | 6250 | 1.95 | 3130 | 3130 | 44 | > 12500 | > 12500 | >12500 | 5.73 | 5.7 | <3.52 | 5.71 | Viable counts, Pseudomonas aeruginosa time kill study ([9]; 0.5 min): 4 Log10 CFU/mL; Viable counts, Pseudomonas aeruginosa time kill study ([9]; 1 min): <3.70 Log10 CFU/mL; Viable counts, Pseudomonas aeruginosa time kill study ([9]; 5 min): <3.52 Log10 CFU/mL; Viable counts, Pseudomonas aeruginosa time kill study ([9]; time 0): 5.45 Log10 CFU/mL; Viable counts, Staphylococcus aureus time kill study ([10]; 0.5 min): 6.41 Log10 CFU/mL; Viable counts, Staphylococcus aureus time kill study ([10]; 1 min): 6.38 Log10 CFU/mL; Viable counts, Staphylococcus aureus time kill study ([10]; 5 min): 6.36 Log10 CFU/mL; Viable counts, Staphylococcus aureus time kill study ([10]; time 0): 6.34 Log10 CFU/mL; MIC ([5]; ATCC29213, Table 19 summary): 3130 µg/mL
CCCCCCCCCCCCCCOC(=O)C(C)N(C)C (stereo not drawn) [Nex-66, Tetradecyl 2-(dimethylamino)propanoate hydrochloride] | > 12500 | > 12500 | > 12500 | 3130 | 3130 | 3130 | 6250 | 6250 | 6250 | 2.35 | 3130 | 3130 | 48 | > 12500 | > 12500 | >12500 | 5.91 | 6.03 | 5.81 | 5.7 | Viable counts, Pseudomonas aeruginosa time kill study ([9]; 0.5 min): 5.91 Log10 CFU/mL; Viable counts, Pseudomonas aeruginosa time kill study ([9]; 1 min): 5.68 Log10 CFU/mL; Viable counts, Pseudomonas aeruginosa time kill study ([9]; 5 min): 5.56 Log10 CFU/mL; Viable counts, Pseudomonas aeruginosa time kill study ([9]; time 0): 5.64 Log10 CFU/mL; Viable counts, Staphylococcus aureus time kill study ([10]; 0.5 min): 6.5 Log10 CFU/mL; Viable counts, Staphylococcus aureus time kill study ([10]; 1 min): 6.41 Log10 CFU/mL; Viable counts, Staphylococcus aureus time kill study ([10]; 5 min): 6.39 Log10 CFU/mL; Viable counts, Staphylococcus aureus time kill study ([10]; time 0): 6.27 Log10 CFU/mL; MIC ([5]; ATCC29213, Table 19 summary): 3130 µg/mL
CCCCCCCCCCCOC(=O)C(C)N(C)C (stereo not drawn) [Nex-67, Undecyl 2-(dimethylamino)propanoate hydrochloride] | 6250 | 6250 | 6250 | 1560 | 1560 | 1560 | 6250 | 6250 | 6250 | 3.77 | 3130 | 1560 | 81 | 12500 | 12500 | 12500 | 5.81 | 5.28 | 3.82 | 5.64 | Viable counts, Candida albicans time kill study ([4]; 0.5 min): 5.53 Log10 CFU/mL; Viable counts, Candida albicans time kill study ([4]; 1 min): 5.49 Log10 CFU/mL; Viable counts, Candida albicans time kill study ([4]; 5 min): 5.41 Log10 CFU/mL; Viable counts, Candida albicans time kill study ([4]; time 0): 5.58 Log10 CFU/mL; Viable counts, Pseudomonas aeruginosa time kill study ([9]; 0.5 min): <4.0 Log10 CFU/mL; Viable counts, Pseudomonas aeruginosa time kill study ([9]; 1 min): <3.70 Log10 CFU/mL; Viable counts, Pseudomonas aeruginosa time kill study ([9]; 5 min): <3.52 Log10 CFU/mL; Viable counts, Pseudomonas aeruginosa time kill study ([9]; time 0): 5.71 Log10 CFU/mL; Viable counts, Staphylococcus aureus time kill study ([10]; 0.5 min): 6.1 Log10 CFU/mL; Viable counts, Staphylococcus aureus time kill study ([10]; 1 min): 6.13 Log10 CFU/mL; Viable counts, Staphylococcus aureus time kill study ([10]; 5 min): 5.88 Log10 CFU/mL; Viable counts, Staphylococcus aureus time kill study ([10]; time 0): 6.27 Log10 CFU/mL
CCCCCCCCCCCCCOC(=O)C(C)N(C)C (stereo not drawn) [Nex-69, Tridecyl 2-(dimethylamino)propanoate hydrochloride] | 12500 | 12500 | 12500 | 3130 | 3130 | 3130 | 6250 | 6250 | 6250 | 1.64 | 3130 | 3130 | 51 | > 12500 | > 12500 | >12500 | 5.72 | 5.54 | <3.52 | 6.25 | Viable counts, Pseudomonas aeruginosa time kill study ([9]; 0.5 min): 5.75 Log10 CFU/mL; Viable counts, Pseudomonas aeruginosa time kill study ([9]; 1 min): 5.74 Log10 CFU/mL; Viable counts, Pseudomonas aeruginosa time kill study ([9]; 5 min): 5.21 Log10 CFU/mL; Viable counts, Pseudomonas aeruginosa time kill study ([9]; time 0): 5.65 Log10 CFU/mL; Viable counts, Staphylococcus aureus time kill study ([10]; 0.5 min): 6.39 Log10 CFU/mL; Viable counts, Staphylococcus aureus time kill study ([10]; 1 min): 6.31 Log10 CFU/mL; Viable counts, Staphylococcus aureus time kill study ([10]; 5 min): 6.38 Log10 CFU/mL; Viable counts, Staphylococcus aureus time kill study ([10]; time 0): 6.41 Log10 CFU/mL; MIC ([5]; ATCC29213, Table 19 summary): 3130 µg/mL
